Here are results for six compounds from ChEMBL document CHEMBL1141307, “Antimalarial benzoquinones from an endophytic fungus, Xylaria sp” (J Nat Prod, 2007).

Series [1] concerns Plasmodium falciparum. Description: Antimalarial activity against multidrug-resistant Plasmodium falciparum K1 by microculture radioisotope assay. Type of series: functional, organism-based.
Series [2] concerns Vero. The series is described as follows: Cytotoxicity against African green monkey Vero cells after 72 hrs. Type of series: cell-based. Conditions: Chlorocebus sabaeus.

Molecules are shown by their SMILES. Activity calls are given as the source filed them. The rule behind the calls is not given here.

Usually IC50 stands for the concentration that gives 50% inhibition. With `COc1cc2c3c(oc2c(C)c1O)C(=O)C(C)=CC3=O` [XYLARIAQUINONE A], the IC50 in series [1] is 6680 nM; in series [2] it was more than 184000 nM.

Take `C[C@H]1OC(=O)c2c(O)cccc2C1O` (stereo not given in full): the outcome in series [1] was inactive. The Activity entry in series [2] is recorded as “Not Active”. Take `C[C@H]1[C@@H](O)O[C@@H]2O[C@@]3(C)CC[C@H]4[C@H](C)CC[C@@H]1[C@@]24OO3` [ARTENIMOL]: half-maximal inhibition in series [1] (IC50) required 3.3 nM. Regarding `COC1=CC(=O)C(O)=C(C)C1=O`, the result in series [1] was inactive. The Activity result in series [2] is “Not Active”.

`COC1=CC(=O)C(Cl)=C(C)C1=O`: the IC50 in series [1] is 1840 nM; in series [2] it was 1350 nM. `Cc1c2ccncc2c(C)c2c1[nH]c1ccccc12` [ELLIPTECINE] registered a half-inhibitory concentration (IC50) in series [2] of 2030 nM.
